Test results published in patent US8741911B2, “Raf inhibitor compounds” (Eli Lilly and Company, priority 2012, dated 2014).
Where two headings read alike, the source gives them in different places.

Assays:
WM-266-4 = test: CellTiter-Glo proliferation and viability assay; format: cell-based; settings: Homo sapiens, WM-266-4, B-Raf V600E, melanoma
Description: (§1) B-Raf mutations, particularly B-Raf V600E in human cancer are often observed in human malignancies including melanoma, colorectal, lung, and ovarian cancers. This mutation in B-Raf may lead to constitutive kinase activity and malignant transformation.

Colo-205 = test: CellTiter-Glo proliferation and viability assay; format: cell-based; settings: Homo sapiens, Colo-205, B-Raf V600E, colon
Description: as §1

NCI-H1299 = test: CellTiter-Glo proliferation and viability assay; format: cell-based; settings: Homo sapiens
MV-4-11 = test: CellTiter-Glo proliferation and viability assay; format: cell-based; settings: Homo sapiens
AGS = test: CellTiter-Glo proliferation and viability assay; format: cell-based; settings: Homo sapiens
SW900 = test: CellTiter-Glo proliferation and viability assay; format: cell-based; settings: Homo sapiens
AsPC-1 = test: CellTiter-Glo proliferation and viability assay; format: cell-based; settings: Homo sapiens
SiHa = test: CellTiter-Glo proliferation and viability assay; format: cell-based; settings: Homo sapiens
786-0 = test: CellTiter-Glo proliferation and viability assay; format: cell-based; settings: Homo sapiens
NUGC-3 = test: CellTiter-Glo proliferation and viability assay; format: cell-based; settings: Homo sapiens
[1] = tested on: phospho-ERK in WM-266-4 V600E cells; test: SureFire phospho-ERK AlphaScreen cellular assay; format: cell-based; settings: Homo sapiens, 1 hour treatment
Protocol: (§2) A375 V600E, WM-266-4 V600E, HCT-116 K-Ras mutant B-Raf wild type are from ATCC. The cellular activities are assessed by an ELISA assay commercially available from TGR Biosciences to measure the phospho-ERK levels of each cell type.
(§3) The cells in each well are then lysed with 50 μl lysis buffer from TGR Biosciences. The phospho-ERK activities are determined with SureFire phospho-ERK AlphaScreen assay kit from TGR Biosciences per manufacturer's instruction.

[2] = tested on: phospho-ERK in A375 V600E-PLX4032 resistant cells (A375-res); test: SureFire phospho-ERK AlphaScreen cellular assay; format: cell-based; settings: Homo sapiens, A-375, 1 hour treatment
Protocol: as §2, §3

[3] = tested on: phospho-ERK in A375 V600E cells; test: SureFire phospho-ERK AlphaScreen cellular assay; format: cell-based; settings: Homo sapiens, A-375, 1 hour treatment
Protocol: as §2, §3

[4] = tested on: phospho-ERK in HCT-116 (K-Ras mutant B-Raf wild type) cells; test: SureFire phospho-ERK AlphaScreen cellular assay; format: cell-based; settings: Homo sapiens, 1 hour treatment
Protocol: as §2, §3

HuH-7 = test: CellTiter-Glo proliferation and viability assay; format: cell-based; settings: Homo sapiens, read-out: Rel IC50
[5] = tested on: phospho-MEK and phospho-ERK in A375 cells; test: Immunoblotting (Western Blot) analysis of phospho-MEK and phospho-ERK; format: cell-based, human
Protocol: Testing is carried out at doses of 0, and 11 serial dilutions ranging from 0.17 to 10000 nM. Protein lysates are generated by treatment of the cells with RIPA lysis buffer from Millipore. Western blotting analysis is performed substantially as described in Yadav et al, Molecular Carcinogenesis, 2011, 50: 346-52. Briefly, SDS-PAGE is performed on cell lysates containing 20 ug of total protein using 4-20% Novex® tri-glycine gradient gels (Invitrogen). Protein is transferred onto […] nitrocellulose membranes using NuPAGE® Transfer Buffer (Invitrogen) and 10% methanol at 100 V, 4° C. for 1 hr. Generally, the primary antibody is used at 1:1000 dilution, and secondary antibody at 1:20000 dilution. Proteins are detected using the Odyssey Infrared Imaging System (Li-COR Biosciences). Antibodies against ERK1/2, phospho-ERK1/2, phospho-MEK1/2, and actin are obtained from Cell Signaling Technology.
Phospho-ERK activity was substantially eliminated at 41 nM.

LOUCY = test: CellTiter-Glo proliferation and viability assay; format: cell-based; settings: Homo sapiens, read-out: Abs IC50
Hep3B2.1-7 = test: CellTiter-Glo proliferation and viability assay; format: cell-based; settings: Homo sapiens
NCI-H23 = test: CellTiter-Glo proliferation and viability assay; format: cell-based; settings: Homo sapiens
NCI-H838 = test: CellTiter-Glo proliferation and viability assay; format: cell-based; settings: Homo sapiens
NCI-H2170 = test: CellTiter-Glo proliferation and viability assay; format: cell-based; settings: Homo sapiens
U-118-MG = test: CellTiter-Glo proliferation and viability assay; format: cell-based; settings: Homo sapiens
A375 = test: CellTiter-Glo proliferation and viability assay; format: cell-based; settings: Homo sapiens
NCI-H1694 = test: CellTiter-Glo proliferation and viability assay; format: cell-based; settings: Homo sapiens
NCI-H661 = test: CellTiter-Glo proliferation and viability assay; format: cell-based; settings: Homo sapiens
BxPC-3 = test: CellTiter-Glo proliferation and viability assay; format: cell-based; settings: Homo sapiens

CNc1ncc2cc(-c3cc(NC(=O)NCCC(C)(C)C)c(F)cc3C)c(C)nc2n1 [Example 1, 1-(3,3-Dimethylbutyl)-3-(2-fluoro-4-methyl-5-(7-methyl-2-(methylamino)pyrido[2,3-d]pyrimidin-6-yl)phenyl)urea]
IC50 (WM-266-4): 52.9 nM
IC50 (Colo-205): 27 nM
IC50 (NCI-H1299; read-out: Abs IC50): 0.91 nM
IC50 (NCI-H1299; read-out: Rel IC50): 0.14 nM
IC50 (MV-4-11; MV4-11, read-out: Abs IC50): 0.98 nM
IC50 (MV-4-11; MV4-11, read-out: Rel IC50): 1.87 nM
IC50 (AGS; read-out: Abs IC50): 1.14 nM
IC50 (AGS; read-out: Rel IC50): 0.34 nM
IC50 (SW900; read-out: Abs IC50): 0.69 nM
IC50 (SW900; read-out: Rel IC50): 0.23 nM
IC50 (AsPC-1; ASPC1, read-out: Abs IC50): 1.22 nM
IC50 (AsPC-1; ASPC1, read-out: Rel IC50): 0.38 nM
IC50 (SiHa; read-out: Abs IC50): > 20 nM
IC50 (SiHa; read-out: Rel IC50): > 20 nM
IC50 (786-0; read-out: Abs IC50): > 20 nM
IC50 (786-0; read-out: Rel IC50): 4.58 nM
IC50 (NUGC-3; read-out: Abs IC50): 0.68 nM
IC50 (NUGC-3; read-out: Rel IC50): 0.21 nM
IC50 [1]: 4.9 nM
IC50 [2]: 9.7 nM
IC50 [3]: 3 nM
IC50 [4]: 133 nM
IC50 (HuH-7): 0.13 nM
concentration at which phospho-ERK activity was substantially eliminated [5]: 41 nM
phospho-MEK and phospho-ERK activities [5]: inhibited phospho-MEK and phospho-ERK activities
IC50 (LOUCY): 6.93 nM
IC50 (Hep3B2.1-7; read-out: Abs IC50): 0.8 nM
IC50 (Hep3B2.1-7; read-out: Rel IC50): 0.36 nM
IC50 (NCI-H23; read-out: Abs IC50): 6.27 nM
IC50 (NCI-H23; read-out: Rel IC50): 0.69 nM
IC50 (NCI-H838; read-out: Abs IC50): 13.4 nM
IC50 (NCI-H838; read-out: Rel IC50): 6.97 nM
IC50 (NCI-H2170; read-out: Abs IC50): 15.1 nM
IC50 (NCI-H2170; read-out: Rel IC50): 19.9 nM
IC50 (U-118-MG; read-out: Abs IC50): 5.21 nM
IC50 (U-118-MG; read-out: Rel IC50): 0.76 nM
IC50 (A375; A-375, A375, B-Raf V600E, melanoma): 9.2 nM
IC50 (A375; A-375, parental A375 B-Raf V600E cells, comparison with A375res): 11 nM
IC50 (NCI-H1694; read-out: Abs IC50): 15.1 nM
IC50 (NCI-H1694; read-out: Rel IC50): 16.3 nM
IC50 (NCI-H661; read-out: Abs IC50): > 20 nM
IC50 (NCI-H661; read-out: Rel IC50): 12.6 nM
IC50 (BxPC-3; read-out: Abs IC50): 0.39 nM
IC50 (BxPC-3; read-out: Rel IC50): 0.23 nM
